Literature values as cited in paper PMC10339703 (Clinical and Translational Science, 2023).

Legend:
[1] = test system: patients with IPF; conditions: most common side effects; cited from earlier work
[2] = test system: patients with IPF; conditions: commonly reported adverse effects; cited from earlier work

Row | SMILES | rash, incidence [1] | diarrhea, incidence [2] | elevation in liver function tests, incidence [2]
1 | Cc1ccc(=O)n(-c2ccccc2)c1 [Pirfenidone] | 30% |  | 
2 | COC(=O)c1ccc2c(c1)NC(=O)/C2=C(\Nc1ccc(N(C)C(=O)CN2CCN(C)CC2)cc1)c1ccccc1 [Nintedanib] |  | 62% | 14%
